Test results published in patent publication US20250352500A1, “USE OF PHENOLIC ACIDS DERIVATIVES IN TREATING ISCHEMIC STROKE” (LANZHOU UNIVERSITY, priority 2022, published 2025).

Assays:
Format in all cases: in vivo, male C57/BL mice
[1] = tested on: IL-1β; assay: RT-qPCR of IL-1β mRNA in brain tissue; conditions: 72 h, three days of administration, compound 2 100 mg/kg, P<0.01
Experimental: (§1) Grouping and administration method: Male C57/BL mice weighing 23±1 g were randomly divided into sham operation group (SHAM), model group (MCAO), compound 2 group (100 mg/kg), and compound 1 group (50 mg/kg), with 10 mice in each group. Mice in the SHAM group underwent vascular isolation, but no […] was administered, and no treatment was given before or after surgery. The model group mice were constructed with MCAO models and were not treated before and after surgery. The treatment group was treated with compound 2 or compound 1 on the basis of the model group. Mice with a neurological score of 0 after reperfusion and those that died before 72 hours post-surgery were excluded. […]
(§2) To investigate the effect of compounds on the expression of inflammatory factors after ischemia-reperfusion, this study used immunofluorescence experiments to observe the expression of TNF-α, IL-1β, IL-6, iNOS, and COX2 proteins in brain tissue. […] The concentrations of TNF-α, IL-1β, and IL-6 in brain homogenate were detected by enzyme-linked immunosorbent assay (ELISA), and the expression level of TNF-α protein in brain tissue was detected by Western blot.
(§3) After 72 hours of ischemia-reperfusion, the mRNA expression levels of TNF-α, IL-1β, IL-6, iNOS, and COX2 in brain tissue were detected and analyzed by RT-qPCR. […]

[2] = tested on: MCAO model mice; assay: Survival curve after ischemia-reperfusion; conditions: 100 mg/kg tail vein
Experimental: (§4) Grouping and administration method: Male C57/BL mice weighing 23±1 g were randomly divided into sham operation group (SHAM), model group (MCAO), compound 2 group (100 mg/kg), and compound 1 group (50 mg/kg), with 10 mice in each group. Mice in the SHAM group underwent vascular isolation, but no […] was administered, and no treatment was given before or after surgery. The model group mice were constructed with MCAO models and were not treated before and after surgery. The treatment group was treated with compound 2 or compound 1 on the basis of the model group. Mice with a neurological score of 0 after reperfusion and those that died before 72 hours post-surgery were excluded. The administration time for animal behavior tests was seven times at 0 h, 1 day, 2 days, 3 days, 4 days, 5 days, and 6 days after reperfusion, while the administration time for other experiments was three times at 0 h, 1 day, and 2 days after reperfusion. The drug was administered through the tail vein, and the sham operation group and model group were given equal amounts of saline.
At the same time, the weight change and survival rate of mice after ischemia-reperfusion were analyzed.

[3] = tested on: IL-6; assay: RT-qPCR of IL-6 mRNA in brain tissue; conditions: 72 h, three days of administration, compound 2 100 mg/kg, P<0.01
Experimental: as §1, §2, §3

[4] = tested on: MCAO model mice; assay: Zea-Longa neurological function score in MCAO model mice
Experimental: (§5) Male C57/BL mice weighing 23±1 g were randomly divided into sham operation group (SHAM), model group (MCAO) and drug administration groups (50 mg/kg, 100 mg/kg, 200 mg/kg), with 6 mice in each group. Mice in the SHAM group underwent vascular isolation, but no […] was administered, and no treatment was given before or after surgery. The model group mice were constructed with ischemic MCAO models, and no treatment was given before and after surgery. The drug administration group was treated with compound 2 on the basis of the model group. Mice with a neurological score of 0 after reperfusion and those that died before 72 hours post-surgery were excluded. The drugs were administered through the tail vein at 0, 1, and 2 days after reperfusion. The SHAM group and MCAO group were given equal volumes of saline.
The neurological function score reflects the neurological injury status of MCAO model mice. After 24 hours of modeling, the neurological function score was performed (refer to the Zea-Longa scoring screening method). Mice with scores of 1-3 were successfully modeled, and those with scores of 0 and 4 were excluded.
In this experiment, the Zea-Longa scoring method was used to score the sham hand group (SHAM), model group (MCAO), compound 2 (50 mg/kg) group, compound 2 (100 mg/kg) group, and compound 2 (200 mg/kg) group. The main scoring time points were before surgery, day 1, day 2, and day 3.

[5] = tested on: MCAO model mice; assay: Cerebral infarction volume by TTC staining in MCAO model mice; conditions: for Cerebral infarction volume reduced compared with the model group: mean±SEM
Experimental: as §5
The cerebral infarction volumes of the sham-hand group (SHAM), model group (MCAO), compound 2 (50 mg/kg) group, compound 2 (100 mg/kg) group, and compound 2 (200 mg/kg) group in Example 2 were detected by TTC staining. […] The cerebral infarction volumes of mice in the different concentration groups were different.

[6] = tested on: MCAO model mice; assay: Modified neurological severity score (mNSS, 14-point scale)
Experimental: as §4
In addition, the neurological deficit score (mNSS) method shown in the table above was used to score the neurological function of each group of mice on a 14-point scale. Neurobehavioral scores were assessed in mice of the SHAM group, MCAO group, Compound 2 group, and Compound 1 group on day 1, 3, 5, and 7 post-surgery. […]

O=C(O)c1cc(OP(=O)(O)O)ccc1OP(=O)(O)O [compound 2]
IL-1β mRNA expression compared with MCAO group [1]: significantly reduced
Mortality rate (survival curve) compared with MCAO group [2]: significantly improved the mortality rate
Decrease of IL-6 mRNA expression compared with MCAO group [3]: 51±8%
Zea-Longa neurological score compared with the model group ([4]; 24 hours of reperfusion, 50, 100, 200 mg/kg via tail vein): no significant difference
Zea-Longa neurological score compared with the model group ([4]; after 48 hours, 100 mg/kg via tail vein, P<0.001): most significant decrease
Zea-Longa neurological score compared with the model group ([4]; after 48 hours, three concentrations (50, 100, 200 mg/kg) via tail vein): decreased significantly
Zea-Longa neurological score compared with the model group ([4]; after 72 hours of reperfusion, 100 mg/kg via tail vein, P<0.001): significantly decreased
Cerebral infarction volume reduced compared with the model group ([5]; 100 mg/kg via tail vein at 0, 1, 2 days after reperfusion, P<0.001): 27.17±5.18%
Cerebral infarction volume smaller at 100 mg/kg compared with 50 mg/kg ([5]; 100 mg/kg vs 50 mg/kg of compound 2, mean±SEM, P<0.05): 26.22±4.68%
Cerebral infarction volume reduced compared with the model group ([5]; 200 mg/kg via tail vein at 0, 1, 2 days after reperfusion, P<0.05): 16.19±3.56%
Neurological function (mNSS 14-point scale) compared with the compound 1 group ([6]; compound 2 100 mg/kg vs compound 1 50 mg/kg): significantly improved
Neurological function (mNSS 14-point scale) compared with MCAO group ([6]; day 1 to day 7 of reperfusion, 100 mg/kg tail vein): improved significantly
